This note sets out measurements from patent US8076324B2, “Di(hetero)arylcyclohexane derivatives, their preparation, their use and pharmaceutical compositions comprising them” (Sanofi-Aventis, priority 2007, dated 2011).

In data set [1] the target is T1, myocardial ATP-sensitive potassium channel (SUR2A/Kir6.2) (UniProt Q61743+Q63563).
T1 construct: expressed in transfected cells
Nature of the data set: Rubidium efflux test on HEK293 cells transfected with SUR2A and Kir6.2 (myocardial action). To be noted: HEK293 cells transfected with SUR2A/Kir6.2; KATP channels opened by rilmakalim; 25 min incubation; read-out: IC50 values for the inhibition of the rubidium efflux. The data set is classed as cell-based, SUR2A from the rat, Kir6.2 from the mouse. Put shortly:
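HEK293 cells stably expressing mouse Kir6.2 and rat SUR2A loaded 3 h at 37 °C with 5.4 mM RbCl, then test compound added and channels opened with rilmakalim (2 μM, stock as added) for 25 min at 37 °C. Rb+ in supernatant and lysate by atomic absorption; efflux = supernatant/total, IC50 via Hill equation.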

T1 sequence (Q63563 whole entry): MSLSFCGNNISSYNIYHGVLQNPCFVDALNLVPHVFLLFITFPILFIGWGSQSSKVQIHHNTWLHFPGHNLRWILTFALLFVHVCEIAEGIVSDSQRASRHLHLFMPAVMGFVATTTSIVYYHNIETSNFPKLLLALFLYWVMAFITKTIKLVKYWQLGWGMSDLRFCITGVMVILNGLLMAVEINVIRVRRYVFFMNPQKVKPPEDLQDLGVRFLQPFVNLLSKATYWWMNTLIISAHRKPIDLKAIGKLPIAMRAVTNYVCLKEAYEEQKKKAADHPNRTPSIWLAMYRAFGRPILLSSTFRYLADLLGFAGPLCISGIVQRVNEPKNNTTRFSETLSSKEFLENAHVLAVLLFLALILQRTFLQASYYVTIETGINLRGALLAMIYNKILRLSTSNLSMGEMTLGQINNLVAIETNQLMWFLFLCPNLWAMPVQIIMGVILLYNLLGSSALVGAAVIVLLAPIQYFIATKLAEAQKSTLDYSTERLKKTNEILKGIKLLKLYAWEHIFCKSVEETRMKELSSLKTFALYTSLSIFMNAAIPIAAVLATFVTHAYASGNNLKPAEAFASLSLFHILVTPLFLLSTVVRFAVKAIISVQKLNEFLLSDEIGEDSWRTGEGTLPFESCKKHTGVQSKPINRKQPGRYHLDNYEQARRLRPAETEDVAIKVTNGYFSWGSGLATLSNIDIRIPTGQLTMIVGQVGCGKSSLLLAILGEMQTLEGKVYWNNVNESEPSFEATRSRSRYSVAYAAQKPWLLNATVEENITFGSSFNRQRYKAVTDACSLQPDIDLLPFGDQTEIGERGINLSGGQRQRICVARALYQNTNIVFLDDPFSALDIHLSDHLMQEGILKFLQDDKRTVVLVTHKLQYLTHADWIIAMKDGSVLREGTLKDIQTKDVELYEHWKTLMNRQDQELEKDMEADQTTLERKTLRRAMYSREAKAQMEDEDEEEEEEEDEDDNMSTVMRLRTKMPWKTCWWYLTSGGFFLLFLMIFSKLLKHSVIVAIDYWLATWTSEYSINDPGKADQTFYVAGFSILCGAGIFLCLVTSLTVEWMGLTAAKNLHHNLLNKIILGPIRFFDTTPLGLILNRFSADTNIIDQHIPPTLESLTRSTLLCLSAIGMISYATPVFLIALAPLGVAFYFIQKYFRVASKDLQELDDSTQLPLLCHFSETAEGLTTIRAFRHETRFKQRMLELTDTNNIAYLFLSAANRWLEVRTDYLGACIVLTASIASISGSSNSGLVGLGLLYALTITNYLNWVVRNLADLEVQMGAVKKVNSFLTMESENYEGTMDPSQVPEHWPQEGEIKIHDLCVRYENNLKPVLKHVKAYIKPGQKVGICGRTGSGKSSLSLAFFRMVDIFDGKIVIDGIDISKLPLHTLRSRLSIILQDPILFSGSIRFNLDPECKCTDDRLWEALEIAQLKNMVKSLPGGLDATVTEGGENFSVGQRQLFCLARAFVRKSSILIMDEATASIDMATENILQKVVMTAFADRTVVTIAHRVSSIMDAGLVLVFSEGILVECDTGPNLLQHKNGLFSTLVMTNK
T1 sequence (Q61743 whole entry): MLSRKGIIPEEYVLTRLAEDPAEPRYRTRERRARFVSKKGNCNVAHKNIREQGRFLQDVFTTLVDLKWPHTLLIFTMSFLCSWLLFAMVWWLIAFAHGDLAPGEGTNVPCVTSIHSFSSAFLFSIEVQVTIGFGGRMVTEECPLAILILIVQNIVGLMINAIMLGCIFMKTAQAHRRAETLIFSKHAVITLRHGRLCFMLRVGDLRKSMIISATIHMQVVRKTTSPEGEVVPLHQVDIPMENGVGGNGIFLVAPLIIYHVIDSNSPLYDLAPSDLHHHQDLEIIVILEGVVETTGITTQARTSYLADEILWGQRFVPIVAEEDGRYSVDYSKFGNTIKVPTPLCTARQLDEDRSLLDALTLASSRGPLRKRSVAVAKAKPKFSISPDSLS

`Cc1c(Br)nc([C@]2(OCC3CC3)CC[C@](C(=O)O)(c3ccc(F)cc3)CC2)n1CC1CC1` [Example 350, Cis 4-(4-Bromo-1-cyclopropylmethyl-5-methyl-1H-imidazol-2-yl)-4-cyclopropylmethoxy-1-(4-fluorophenyl)cyclohexanecarboxylic Acid]: the melting point (as a rule, the temperature, or range, at which the solid turns liquid) was 210 °C. Moreover, the IC50 (commonly the concentration needed to halve the response being measured) in data set [1] was less than 1000 nM.
The corresponding values for `O=C(O)[C@]1(c2ccccc2)CC[C@@](Oc2ccc(C(F)(F)F)cc2)(c2nc(-c3ccccc3)n(CC3CC3)n2)CC1` [Example 474, Cis-4-(1-Cyclopropylmethyl-5-phenyl-1H-[1,2,4]triazol-3-yl)-1-phenyl-4-(4-trifluoromethylphenoxy)cyclohexanecarboxylic Acid] are 85 °C and less than 1000 nM.
Taken in the same sequence, the figures for `Cc1nc([C@]2(OCC3CC3)CC[C@](C(=O)O)(c3ccccc3)CC2)n(CC2CC2)c1-c1ccccc1` [Example 426, Cis-4-Cyclopropylmethoxy-4-(1-cyclopropylmethyl-4-methyl-5-phenyl-1H-imidazol-2-yl)-1-phenylcyclohexanecarboxylic Acid] were 218 °C and less than 1000 nM.
The corresponding values for `Cc1nc([C@]2(OCC3CC3)CC[C@](C(=O)O)(c3ccc(F)cc3)CC2)n(CC2CC2)c1Br` [Example 354, Cis-4-(5-Bromo-1-cyclopropylmethyl-4-methyl-1H-imidazol-2-yl)-4-cyclopropylmethoxy-1-(4-fluorophenyl)cyclohexanecarboxylic Acid] are 190 °C and less than 1000 nM.
In turn, `Cc1nc([C@]2(Oc3ccccc3)CC[C@](C(=O)O)(c3ccccc3)CC2)n(CC2CC2)c1Cl` [Example 400, Cis 4-(5-Chloro-1-cyclopropylmethyl-4-methyl-1H-imidazol-2-yl)-4-phenoxy-1-phenylcyclohexanecarboxylic Acid] returned a melting point of 170 °C. Moreover, the IC50 in data set [1] is less than 1000 nM.
The corresponding values for `O=C(O)[C@]1(c2ccc(F)cc2)CC[C@](Oc2ccccc2)(c2ccc(F)cn2)CC1` [Example 345, Trans-1-(4-Fluorophenyl)-4-(5-fluoropyridin-2-yl)-4-phenoxycyclohexanecarboxylic Acid] are 237 °C and less than 1000 nM.
As to `Cc1c(Br)nc([C@]2(Oc3ccccc3)CC[C@](C(=O)O)(c3ccc(F)cc3)CC2)n1CC1CC1` [Example 403, Cis-4-(4-Bromo-1-cyclopropylmethyl-5-methyl-1H-imidazol-2-yl)-4-phenoxy-1-(4-fluorophenyl)cyclohexanecarboxylic Acid], the melting point was 158 °C. Also, the IC50 in data set [1] is less than 1000 nM.
